Source: patent US20260022142A1, “MACROCYCLIC IMMUNOMODULATORS” (Bristol-Myers Squibb Company, priority 2022, published 2026)
Numbered stars: 1 amine (or outer) side, 2 acyl side, 3 side chain; on linkers, the order of the positions; unused ones are H or OH. Bridge positions count the residues as written; N and C are the ends. Square brackets hold non-standard residues; d marks the D form. Peptide text beside a SMILES is read from it. * marks the point of attachment. ξ: configuration not given here. Phe(3-CF3) = N[C@@H](Cc1cccc(C(F)(F)F)c1)C(=O)O; Phe(4-COOH) = N[C@@H](Cc1ccc(C(=O)O)cc1)C(=O)O; Bip = N[C@@H](Cc1ccc(-c2ccccc2)cc1)C(=O)O; Phe(4-CN) = N#Cc1ccc(C[C@H](N)C(=O)O)cc1; NH(CH2)14COOH = O=C(O)CCCCCCCCCCCCCCN*; Phe(3-Me) = Cc1cccc(C[C@H](N)C(=O)O)c1; γGlu = O=C(O)[C@H](CCC(=O)[*:2])N[*:1]; NH(CH2)12COOH = O=C(O)CCCCCCCCCCCCN*; Phe(2-Me) = Cc1ccccc1C[C@H](N)C(=O)O; Val(3-OH) = CC(C)(O)[C@H](N)C(=O)O; hArg = N=C(N)NCCCC[C@H](N)C(=O)O; 4Pal = N[C@@H](Cc1ccncc1)C(=O)O; Cha = N[C@@H](CC1CCCCC1)C(=O)O; Cit = NC(=O)NCCC[C@H](N)C(=O)O; Thr(3ξ) = CC(O)[C@H](N)C(=O)O; Carboxymethyl = O=C(O)C*; Orn = NCCC[C@H](N)C(=O)O; Aun = NCCCCCCCCCCC(=O)O; Dab = NCC[C@H](N)C(=O)O; Abu = CC[C@H](N)C(=O)O; Dap = NC[C@H](N)C(=O)O; AEEA = NCCOCCOCC(=O)O; ξT = CC(O)C(N)C(=O)O

These compounds were tested against T1, PD-1/PD-L1 interaction (PE-labeled human PD-L1-Ig binding to Jurkat cell line over-expressing human PD-1) (Homo sapiens, UniProt Q15116) (assay: Jurkat-PD-1 Cell Binding High-Content Screening Assay (CBA)). Settings: Jurkat cell line over-expressing human PD-1; PE-labeled PD-L1-Ig 20 nM final; read-out: Jurkat hPD1-PDL1 IC50.
T1 construct: expressed in transfected cells; host or cells: Jurkat
Assay type: cell-based
Summary of the method: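 Jurkat cells stably over-expressing human PD-1 were seeded in DMEM with 10% fetal calf serum and pre-incubated with compound for 2 h at 37° C. PE-labeled human PD-L1-Ig was then added at 20 nM final for 1 hour, after which cells were fixed with paraformaldehyde, Hoechst-stained and imaged by high-content microscopy.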

T1 sequence (Q15116 25-288): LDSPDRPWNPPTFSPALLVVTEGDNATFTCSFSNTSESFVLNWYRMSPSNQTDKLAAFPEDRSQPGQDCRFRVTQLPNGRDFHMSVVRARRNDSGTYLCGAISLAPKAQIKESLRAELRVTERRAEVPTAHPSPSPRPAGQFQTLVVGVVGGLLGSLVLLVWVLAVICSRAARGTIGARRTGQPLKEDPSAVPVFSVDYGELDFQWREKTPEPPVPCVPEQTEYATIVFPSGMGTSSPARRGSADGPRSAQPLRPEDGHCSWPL

Row | Compound | IC50 [nM]
1 | Cc1cccc(C[C@@H]2NC(=O)[C@H](CC(=O)O)NC(=O)[C@H](Cc3ccc(OCC(=O)O)cc3)NC(=O)[C@H](CN)NC(=O)CSC[C@@H](C(=O)N[C@@H](CCN)C(=O)NCCCCCCCCCCC(=O)O)NC(=O)[C@H](CCCNC(=N)N)NC(=O)[C@H](Cc3ccc(O)cc3)NC(=O)[C@H](CC3CCCCC3)NC(=O)[C@H](CCN)NC(=O)[C@@H](CC(C)C)NC(=O)[C@H](CCCN)NC(=O)[C@H](Cc3ccc(O)cc3)NC(=O)[C@H](Cc3ccc(-c4ccccc4)cc3)NC(=O)[C@H](Cc3ccc(O)cc3)NC2=O)c1 [Compound 2512] ({CH2CO}-[Dap]Y(Carboxymethyl)D[Phe(3-Me)]Y[Bip]Y[Orn][dL][Dab][Cha]YRC[Dab][Aun]-OH; thioether N-14) | 33.4
2 | Cc1cccc(C[C@@H]2NC(=O)[C@H](CC(=O)O)NC(=O)[C@H](Cc3ccc(OCC(=O)O)cc3)NC(=O)[C@H](CC(N)=O)NC(=O)CSC[C@@H](C(=O)N[C@@H](CCN)C(=O)NCCOCCOCC(=O)NCCCCCCCCCCC(=O)O)NC(=O)[C@H](CCCN)NC(=O)[C@H](C(C)C)NC(=O)[C@H](CC3CCCCC3)NC(=O)[C@H](CCN)NC(=O)[C@@H](CC(C)C)NC(=O)[C@H](CCCN)NC(=O)[C@H](Cc3ccc(O)cc3)NC(=O)[C@H](Cc3ccc(-c4ccccc4)cc3)NC(=O)[C@H](C(C)C)NC2=O)c1 [Compound 2697] ({CH2CO}-NY(Carboxymethyl)D[Phe(3-Me)]V[Bip]Y[Orn][dL][Dab][Cha]V[Orn]C[Dab][AEEA][Aun]-OH; thioether N-14) | 4.9
3 | Cc1cccc(C[C@@H]2NC(=O)[C@H](CC(=O)O)NC(=O)[C@H](Cc3ccc(OCC(=O)O)cc3)NC(=O)[C@H](Cc3ccncc3)NC(=O)CSC[C@@H](C(=O)N[C@@H](CCN)C(=O)NCCCCCCCCCCC(=O)O)NC(=O)[C@H](CO)NC(=O)[C@H](C(C)(C)O)NC(=O)[C@H](CC3CCCCC3)NC(=O)[C@H](CCN)NC(=O)[C@@H](CC(C)C)NC(=O)[C@H](CCCN)NC(=O)[C@H](Cc3ccc(OCC(=O)O)cc3)NC(=O)[C@H](Cc3ccc(-c4ccccc4)cc3)NC(=O)[C@H](Cc3ccccc3C)NC2=O)c1 [Compound 2193] ({CH2CO}-[4Pal]Y(Carboxymethyl)D[Phe(3-Me)][Phe(2-Me)][Bip]Y(Carboxymethyl)[Orn][dL][Dab][Cha][Val(3-OH)]SC[Dab][Aun]-OH; thioether N-14) | 21.7
4 | CC(C)C[C@H]1NC(=O)[C@H](CCCN)NC(=O)[C@H](C(C)C)NC(=O)[C@H](Cc2ccc(-c3ccccc3)cc2)NC(=O)[C@H](C(C)C)NC(=O)[C@H](Cc2c[nH]c3ccccc23)NC(=O)[C@H](CC(=O)O)NC(=O)[C@H](Cc2ccc(OCC(=O)O)cc2)NC(=O)[C@H](Cc2ccc(OCC(=O)O)cc2)NC(=O)CSC[C@@H](C(=O)N[C@@H](CCN)C(=O)NCCCCCCCCCCC(=O)O)NC(=O)[C@H](CN)NC(=O)[C@H](C(C)C)NC(=O)[C@H](CC2CCCCC2)NC(=O)[C@H](CCN)NC1=O [Compound 2562] ({CH2CO}-Y(Carboxymethyl)Y(Carboxymethyl)DWV[Bip]V[Orn][dL][Dab][Cha]V[Dap]C[Dab][Aun]-OH; thioether N-14) | 39.2
5 | Cc1cccc(C[C@@H]2NC(=O)[C@H](CC(=O)O)NC(=O)[C@H](Cc3ccc(O)cc3)NC(=O)[C@H](CC(N)=O)NC(=O)CSC[C@@H](C(=O)N[C@@H](CCCN)C(=O)NCCCCCCCCCCC(=O)O)NC(=O)C(C(C)O)NC(=O)[C@H](C(C)C)NC(=O)[C@H](CC(C)C)NC(=O)[C@H](CCN)NC(=O)[C@@H](CC(C)C)NC(=O)[C@H](CCCN)NC(=O)[C@H](CCCNC(N)=O)NC(=O)[C@H](Cc3ccc(-c4ccccc4)cc3)NC(=O)[C@H](C(C)C)NC2=O)c1 (stereo partly drawn) [Compound 2774] ({CH2CO}-NYD[Phe(3-Me)]V[Bip][Cit][Orn][dL][Dab]LV[ξT]C[Orn][Aun]-OH; thioether N-14) | 71.9

Further lines, results first:

Row | IC50 [nM] | Compound
6 | 44.8 | CC[C@@H]1NC(=O)CSC[C@@H](C(=O)N[C@@H](CCN)C(=O)NCCCCCCCCCCCCC(=O)O)NC(=O)[C@H](Cc2c[nH]cn2)NC(=O)[C@H](C(C)(C)O)NC(=O)[C@H](CC2CCCCC2)NC(=O)[C@H](CCN)NC(=O)[C@@H](CC(C)C)NC(=O)[C@H](CCCN)NC(=O)[C@H](Cc2ccc(C(=O)O)cc2)NC(=O)[C@H](Cc2ccc(-c3ccccc3)cc2)NC(=O)[C@H](Cc2ccc(C(=O)O)cc2)NC(=O)[C@H](Cc2cccc(C(F)(F)F)c2)NC(=O)[C@H](CC(=O)O)NC(=O)[C@H](Cc2ccc(OCC(=O)O)cc2)NC1=O [Compound 2928] ({CH2CO}-[Abu]Y(Carboxymethyl)D[Phe(3-CF3)][Phe(4-COOH)][Bip][Phe(4-COOH)][Orn][dL][Dab][Cha][Val(3-OH)]HC[Dab]-{NH(CH2)12COOH}; thioether N-14)
7 | 17.5 | CC(C)C[C@H]1NC(=O)[C@H](CCCN)NC(=O)[C@H](C(C)C)NC(=O)[C@H](Cc2ccc(-c3ccccc3)cc2)NC(=O)[C@H](C(C)C)NC(=O)[C@H](Cc2c[nH]c3ccccc23)NC(=O)[C@H](CC(=O)O)NC(=O)[C@H](Cc2ccc(OCC(=O)O)cc2)NC(=O)[C@H](CN)NC(=O)CSC[C@@H](C(=O)N[C@@H](CCN)C(=O)NCCOCCOCC(=O)N[C@@H](CCC(=O)NCCCCCCCCCCC(=O)O)C(=O)O)NC(=O)[C@H](CCCCN)NC(=O)[C@H](C(C)O)NC(=O)[C@H](CC2CCCCC2)NC(=O)[C@H](CCN)NC1=O (stereo partly drawn) [Compound 3650] ({CH2CO}-[Dap]Y(Carboxymethyl)DWV[Bip]V[Orn][dL][Dab][Cha][Thr(3ξ)]KC[Dab][AEEA][γGlu][Aun]-OH; thioether N-14)
8 | 1 | Cc1cccc(C[C@@H]2NC(=O)[C@H](CC(=O)O)NC(=O)[C@H](Cc3ccc(C#N)cc3)NC(=O)[C@H](C(C)O)NC(=O)CSC[C@@H](C(=O)N[C@@H](CCN)C(=O)NCCOCCOCC(=O)NCCOCCOCC(=O)NCCCCCCCCCCC(=O)O)NC(=O)[C@H](Cc3cnc[nH]3)NC(=O)[C@H](C(C)(C)O)NC(=O)[C@H](CC3CCCCC3)NC(=O)[C@H](CCN)NC(=O)[C@@H](CC(C)C)NC(=O)[C@H](CCCN)NC(=O)[C@H](Cc3ccc(OCC(=O)O)cc3)NC(=O)[C@H](Cc3ccc(-c4ccccc4)cc3)NC(=O)[C@H](Cc3ccc(OCC(=O)O)cc3)NC2=O)c1 (stereo partly drawn) [Compound 3773] ({CH2CO}-[Thr(3ξ)][Phe(4-CN)]D[Phe(3-Me)]Y(Carboxymethyl)[Bip]Y(Carboxymethyl)[Orn][dL][Dab][Cha][Val(3-OH)]HC[Dab][AEEA][AEEA][Aun]-OH; thioether N-14)
9 | 336 | CC(C)C[C@@H]1NC(=O)[C@H](Cc2c[nH]c3ccccc23)NC(=O)[C@H](CC(=O)O)NC(=O)[C@H](Cc2ccc(C(=O)O)cc2)NC(=O)[C@H](CCCCNC(=N)N)NC(=O)CSC[C@@H](C(=O)N[C@@H](C)C(=O)N[C@@H](CCN)C(=O)NCCCCCCCCCCCCCCC(=O)O)NC(=O)[C@H](CO)NC(=O)[C@H](C(C)C)NC(=O)[C@H](CC2CCCCC2)NC(=O)[C@H](Cc2c[nH]cn2)NC(=O)[C@@H](CC(C)C)NC(=O)[C@H](CCCN)NC(=O)[C@H](C(C)C)NC(=O)[C@H](Cc2ccc(-c3ccccc3)cc2)NC1=O [Compound 3019] ({CH2CO}-[hArg][Phe(4-COOH)]DWL[Bip]V[Orn][dL]H[Cha]VSCA[Dab]-{NH(CH2)14COOH}; thioether N-14)
